In patent US11191840B2, “Compositions and methods relating to salts of specialized pro-resolving mediators” (Thetis Pharmaceuticals LLC, priority 2017, dated 2021):
Structures can show the parent of a compound that is named as a salt. Where two headings read alike, the source gives them in different places. Each block holds one compound with its values, some of them ahead of it.

Experiments:
[1] = tested on: two-cycle DSS colitis model; test: Two-cycle DSS colitis model, concomitant RvE1-Mg-di-lysinate and 5-ASA; format: in vivo, mouse; details: once-daily, RvE1-Mg-Lys 1.5 ug/d, 5-ASA 625 ug/d, alone or combined; for Colon Length / Normalized Spleen Weight / Total Histopath Score: at sacrifice; for Disease Activity Index: terminal (Day 27)
Experimental: (§1) In the study described in Example 17, a sub-chronic model was used to induce colitis in 8-week old C57B16/J mice by two cycles of DSS separated by a 10-day recovery period. Once-daily RvE1-Mg-di-lysinate treatment (15 ug/day) was initiated on Day 20, after DSS-induced colitis was established, and continued for 7 days via oral gavage, with mice sacrificed at the end of Day 27. This sub-chronic, 2-cycle DSS protocol was used to induce inflammation with an immunological profile that better models human IBD than a single cycle of DSS. Oh S Y et al. Comparison of experimental mouse models of inflammatory bowel disease. Int J Mol Med. 2014; 33(2):333-40. This experimental system also provides a representative model for treating patients with active disease where the therapeutic objective is induction of remission. This is important in human IBD because most patients have recurring disease flares. In addition, this study compared RvE1-Mg-di-lysinate to 5-aminosalicylate (5-ASA), which is used as standard-of-care first-line therapy for induction and maintenance of remission in ulcerative colitis and also for certain phenotypes of Crohn's Disease.
(§2) Disease activity was assessed daily using the same Disease Activity Index (DAI) that was used in Example 16. Following sacrifice, colons were excised, flushed with ice-cold PBS, their lengths were measured. Subsequently, H&E-stained colon tissue sections from each animal were also scored using an established scoring system of histopathological disease activity. See Dieleman L A, Palmen M J, Akol H, et al. Chronic experimental colitis induced by dextran sulphate sodium (DSS) is characterized by Th1 and Th2 cytokines. Clin Exp Immunol. 1998; 114(3):385-91.
In this study, we again used the two-cycle DSS colitis model described above, but with once-daily concomitant therapy of RvE1-Mg-di-lysinate (1.5 ug/day) and 5-ASA (625 ug/day). This co-therapy model was used because many patients that would be candidates for RvE1-Mg-di-lysinate treatment will likely continue taking 5-ASA, as this is common clinical practice even when patient are not well controlled on 5-ASA monotherapy.

[2] = Chemical stability against degradation, HPLC, solid in open test tubes at room temperature; format: physicochemical; details: open test tube, room temperature 68-72 F, relative humidity 20-40%
Experimental: The stability of selected SPMs and their ionic derivatives based on Formulas I and IV was evaluated. The parent SPM and its solid ionic derivative were place in open test tubes and maintained at room temperature between 68-72 F and relative humidity between 20-40% for 6 or 8 weeks. […] Briefly, HPLC analysis was performed on a PFP column (Poroshell 120, PFP, 4.6×150 mm, […], Agilent), mounted on a Gilson HPLC system equipped with an ELS detector. The mobile phase consisted of a gradient between solution A, water, and solution B, acetonitrile, both containing 0.1% trifluoroacetic acid. The gradient program was 30-80% with respect to solution B. The flow rate was 0.5 mL/min. The appearance of new HPLC peaks as compared to the baseline HPLC tracing at the initial time point is indicative of decomposition products and the lack of stability. The absence of such new HPLC peaks the subsequent time points is indicative of stability.

[3] = tested on: DSS-induced colitis; test: Sub-chronic two-cycle DSS colitis model, treatment from Day 20; format: in vivo, mouse; details: for Colon Length / Disease Activity Index / Normalized Spleen Weight: Table 7, two cycles of DSS, once-daily oral gavage Day 20-27, 15 ug/day; for Reduction in DAI relative to Disease Control: 15 ug/day oral from Day 20
Experimental: as §1, §2

[4] = tested on: dextran sulfate sodium (DSS) mouse model of colitis; test: Dextran sulfate sodium (DSS) mouse model of colitis, acute, 7 days DSS; format: in vivo; details: RvE1-Mg-di-lysinate 15 ug/day or equimolar RvE1; for Colon Length / Normalized Spleen Weight: at sacrifice after 7 days DSS, once-daily oral gavage; for Disease Activity Index: study day 7, 2% DSS in drinking water 7 days, once-daily oral gavage from day 0
Experimental: A representative compound of Formula IV, RvE1-Mg-di-lysinate, was tested for efficacy in the dextran sulfate sodium (DSS) mouse model of colitis. In this model system, DSS exposure disrupts intestinal barrier function, stimulating local inflammation and inducing a colitis phenotype that mimics the clinical and histopathological features of IBD. See e.g., Laroui H et al. Dextran sodium sulfate (DSS) induces colitis in mice by forming nano-lipocomplexes with medium-chain-length fatty acids in the colon. PLoS ONE. 2012; 7 (3):e32084.
In the present study, 8-week old male C57Bl/6J mice were randomized by weight to three experimental groups and administered 2% DSS (w/v) in drinking water for 7 days. Beginning on study day 0, animals were administered either RvE-Mg-di-lysinate (RvE-Mg-Lys), an equimolar dose of RvE1, or vehicle via once-daily oral gavage. Disease activity was assessed daily using an established Disease Activity Index (DAI). See e.g., Morin C, Blier P U, Fortin S. MAG-EPA reduces severity of DSS-induced colitis in rats. Am J Physiol Gastrointest Liver Physiol. 2016; 310 (10):G808-21. All animals were sacrificed after 7 days of DSS exposure and colons and spleens were harvested. Gross morphological markers of disease activity, including colon length and normalized spleen weight (mg per g body weight) were assessed.
The model system described in Example 16 represents an acute model of human IBD wherein once daily RvE1-Mg-di-lysinate treatment at a dose of 15 ug/day was used in a prophylactic mode to mitigate the onset of intestinal and systemic inflammation induced by administration of DSS. This is relevant to patients in need of maintenance therapy to prevent the recurrence of active disease.

[5] = tested on: two-cycle DSS colitis model; test: Two-cycle DSS colitis model, intracolonic versus oral administration; format: in vivo, mouse; details: 15 ug/d, Day 20-27
Source text: To further test the biological effects on disease activity of luminal absorption of RvE1 administered orally in the form of RvE1-Mg-di-lysinate, we compared direct intracolonic administration (similar to an enema) with oral administration. Whereas we had previously established that oral administration of RvE1-Mg-di-lysinate results in systemic and local colonic exposure to RvE1, intracolonic administration results in predominantly local exposure. We again used the two-cycle DSS colitis model described above, with treatment initiated on Day 20 and continued for 7 days, with mice sacrificed at the end of Day 27. To facilitate intracolonic drug delivery, mice were anesthetized via exposure to 2-4% isoflurane gas. Intracolonic administration of RvE1-Mg-di-lysinate or vehicle was performed, with all animals inverted for 5 minutes following dose administration. Intracolonic administration of RvE1-Mg-di-lysinate was associated with a significant reduction in DAI (P<0.01), colon length (P<0.05), spleen weight (P<0.05) and histopathological disease activity (P<0.05).

[6] = Single oral dose pharmacokinetics: RvE1 exposure in blood plasma, small intestine tissue and colon tissue; format: in vivo, mouse; details: for Timing of RvE1 Cmax: oral administration; for Cmax / Tmax / AUC(0-t): male, C57BL6/J, mouse, single oral dose 10 mg/kg RvE1-Mg-di-lysinate; for AUC(0-t): read-out: AUC0-8 of RvE1
Experimental: To establish the oral pharmacokinetics (PK) of RvE1-Mg-di-lysinate, a study was conducted to investigate RvE1 exposure in blood plasma, small intestine tissue, and colon tissue following a single oral dose of RvE1-Mg-di-lysinate (10 mg/kg) in 8-week old male C57BL6/J mice at various time points up to 8 hours post-dose. RvE1 levels were quantified in all tissue samples by HPLC-MS/MS. Pharmacokinetic curves for all tissue compartments are shown in FIG. 5 and a summary of pharmacokinetic metrics is shown in Table 9.

[7] = Pharmacokinetic analysis of blood and colon tissue after intracolonic administration; format: in vivo; details: mouse, 15 ug/day; for Tmax: read-out: RvE1 Tmax (converted)
Source text: Pharmacokinetic analysis of blood and colon tissue samples were collected in the course of the intracolonic efficacy study and these confirmed that intracolonic administration of RvE1-Mg-di-lysinate is associated with predominantly local RvE1 exposure and minimal uptake into circulation.

[8] = at sacrifice Day 27, 15 ug/day oral, P<0.05
[9] = small intestine tissue, Small Intestine

SMILES: Nc1ccc(O)c(C(=O)O)c1 [Compound 5-ASA, 5-aminosalicylate, reference compound]
Colon Length [1]: 78.7 ± 6.7 mm | Normalized Spleen Weight [1]: 4.1 ± 1.3 mg/g BW | Total Histopath Score [1]: 16 ± 3.8 | Disease Activity Index [1]: 3.3 ± 0.8

SMILES: CC[C@@H](O)/C=C/C=C\C[C@@H](O)/C=C/C=C/C=C\[C@@H](O)CCCC(=O)O [RvE1 Ca di-lysinate, bis(RvE1) calcium L-lysinate salt]
Degradation products by HPLC (chemical stability) ([2]; 6 weeks): No additional peaks corresponding to degradation products were observed

The next lines start with results.

Degradation products by HPLC (chemical stability) ([2]; 8 weeks): without degradation products
SMILES: CC[C@@H](O)/C=C/C=C\C[C@@H](O)/C=C/C=C/C=C\[C@@H](O)CCCC(=O)O [RvE1 lys lys, RvE1 (L,L)-lysyllysine salt]

Degradation products by HPLC (chemical stability) ([2]; 8 weeks): extensively degraded
SMILES: CC[C@@H](O)/C=C/C=C\C[C@@H](O)/C=C/C=C/C=C\[C@@H](O)CCCC(=O)O [RvE1, (5S,6Z,8E,10E,12R,14Z,16E,18R)-5,12,18-trihydroxyicosa-6,8,10,14,16-pentaenoic acid, reference compound]
Colon Length [3]: 75.2 ± 7.6 mm | Disease Activity Index [3]: 5.6 ± 1.1 | Normalized Spleen Weight [3]: 3.9 ± 0.7 mg/g BW | Colon Length [4]: 75.2 ± 7.6 mm | Normalized Spleen Weight [4]: 3.9 ± 0.7 mg/g BW | Disease Activity Index [4]: 5.6 ± 1.1

Share of total RvE1 detected in colon tissue contributed by the increase at the time of blood plasma Cmax ([6]; colon tissue, 15 minutes after oral dose): less than 2% | Timing of RvE1 Cmax ([6]; colon): 4 h | Cmax ([6]; colon tissue, Colon): 19.8 ng/mL | Tmax ([6]; colon tissue, Colon): 4 h | AUC(0-t) ([6]; colon tissue, Colon): 72.9 ng·h/mL | Cmax ([6]; plasma, Blood): 471 ng/mL | Tmax ([6]; plasma, Blood): 0.25 h | AUC(0-t) ([6]; plasma, Blood): 128 ng·h/mL | Cmax [6, 9]: 346 ng/mL | Tmax [6, 9]: 2 h | AUC(0-t) [6, 9]: 533 ng·h/mL | Timing of RvE1 Cmax ([6]; small intestine): 2 h | Cmax ([7]; blood, read-out: Blood Cmax of RvE1): 0.48 ng/mL | Tmax ([7]; blood): 15 min | Cmax ([7]; colon tissue, read-out: Colon Cmax of RvE1): 2800 ng/g | Tmax ([7]; colon): 15 min | Degradation products by HPLC (chemical stability) ([2]; 8 weeks, listed as RvE1 Mg di-lysinate): did not exhibit any degradation products
SMILES: CC[C@@H](O)/C=C/C=C\C[C@@H](O)/C=C/C=C/C=C\[C@@H](O)CCCC(=O)O [RvE1-Mg-Lys, bis(RvE1) magnesium L-lysinate salt]
Reduction in DAI relative to Disease Control ([3]; Day 21, P<0.01): 24% | Reduction in DAI relative to Disease Control ([3]; Day 23, P<0.05): 18% | Colon Length [3]: 77.1 ± 7.8 mm | Disease Activity Index [3]: 4.8 ± 1.3 | Normalized Spleen Weight [3]: 3.6 ± 0.9 mg/g BW | Histopathologic disease activity vs Disease Control (in words) ([3]; at sacrifice Day 27, 15 ug/day oral): non-significant reduction | Colon length vs Disease Control (in words) [3, 8]: statistically significant increase | Normalized spleen weight vs Disease Control (in words) [3, 8]: statistically significant reduction | DAI relative to vehicle control (in words) ([3]; study day 27, 15 ug/day oral Day 20-27): statistically significant reduction | Colon Length ([5]; Intracolonic): 83.1 ± 5.4 mm | Disease Activity Index ([5]; Intracolonic): 2.6 ± 1.9 | Normalized Spleen Weight ([5]; Intracolonic): 4.3 ± 0.9 mg/g BW | Total Histopath Score ([5]; Intracolonic): 15 ± 2.7 | Colon Length ([5]; Oral): 82.7 ± 5.6 mm | Disease Activity Index ([5]; Oral): 2.6 ± 1.8 | Normalized Spleen Weight ([5]; Oral): 4.4 ± 1.4 mg/g BW | Total Histopath Score ([5]; Oral): 15.9 ± 6.0 | Colon Length [1]: 77.3 ± 3 mm | Normalized Spleen Weight [1]: 6.6 ± 0.5 mg/g BW | Total Histopath Score [1]: 17.6 ± 2.7 | Disease Activity Index [1]: 3.7 ± 1.6 | Colon Length [4]: 77.1 ± 7.8 mm | Normalized Spleen Weight [4]: 3.6 ± 0.9 mg/g BW | Disease Activity Index [4]: 4.8 ± 1.3
